Data on 3 molecules can be found in ChEMBL document CHEMBL1153178, “Design and synthesis of a hybrid potentiator-corrector agonist of the cystic fibrosis mutant protein DeltaF508-CFTR” (Bioorg Med Chem Lett, 2010).

Calls of active or inactive are those of the source. The rule behind the calls is not given here.

Chain of Cystic fibrosis transmembrane conductance regulator (Homo sapiens), P13569 [F508del] (P13569 as listed by the source): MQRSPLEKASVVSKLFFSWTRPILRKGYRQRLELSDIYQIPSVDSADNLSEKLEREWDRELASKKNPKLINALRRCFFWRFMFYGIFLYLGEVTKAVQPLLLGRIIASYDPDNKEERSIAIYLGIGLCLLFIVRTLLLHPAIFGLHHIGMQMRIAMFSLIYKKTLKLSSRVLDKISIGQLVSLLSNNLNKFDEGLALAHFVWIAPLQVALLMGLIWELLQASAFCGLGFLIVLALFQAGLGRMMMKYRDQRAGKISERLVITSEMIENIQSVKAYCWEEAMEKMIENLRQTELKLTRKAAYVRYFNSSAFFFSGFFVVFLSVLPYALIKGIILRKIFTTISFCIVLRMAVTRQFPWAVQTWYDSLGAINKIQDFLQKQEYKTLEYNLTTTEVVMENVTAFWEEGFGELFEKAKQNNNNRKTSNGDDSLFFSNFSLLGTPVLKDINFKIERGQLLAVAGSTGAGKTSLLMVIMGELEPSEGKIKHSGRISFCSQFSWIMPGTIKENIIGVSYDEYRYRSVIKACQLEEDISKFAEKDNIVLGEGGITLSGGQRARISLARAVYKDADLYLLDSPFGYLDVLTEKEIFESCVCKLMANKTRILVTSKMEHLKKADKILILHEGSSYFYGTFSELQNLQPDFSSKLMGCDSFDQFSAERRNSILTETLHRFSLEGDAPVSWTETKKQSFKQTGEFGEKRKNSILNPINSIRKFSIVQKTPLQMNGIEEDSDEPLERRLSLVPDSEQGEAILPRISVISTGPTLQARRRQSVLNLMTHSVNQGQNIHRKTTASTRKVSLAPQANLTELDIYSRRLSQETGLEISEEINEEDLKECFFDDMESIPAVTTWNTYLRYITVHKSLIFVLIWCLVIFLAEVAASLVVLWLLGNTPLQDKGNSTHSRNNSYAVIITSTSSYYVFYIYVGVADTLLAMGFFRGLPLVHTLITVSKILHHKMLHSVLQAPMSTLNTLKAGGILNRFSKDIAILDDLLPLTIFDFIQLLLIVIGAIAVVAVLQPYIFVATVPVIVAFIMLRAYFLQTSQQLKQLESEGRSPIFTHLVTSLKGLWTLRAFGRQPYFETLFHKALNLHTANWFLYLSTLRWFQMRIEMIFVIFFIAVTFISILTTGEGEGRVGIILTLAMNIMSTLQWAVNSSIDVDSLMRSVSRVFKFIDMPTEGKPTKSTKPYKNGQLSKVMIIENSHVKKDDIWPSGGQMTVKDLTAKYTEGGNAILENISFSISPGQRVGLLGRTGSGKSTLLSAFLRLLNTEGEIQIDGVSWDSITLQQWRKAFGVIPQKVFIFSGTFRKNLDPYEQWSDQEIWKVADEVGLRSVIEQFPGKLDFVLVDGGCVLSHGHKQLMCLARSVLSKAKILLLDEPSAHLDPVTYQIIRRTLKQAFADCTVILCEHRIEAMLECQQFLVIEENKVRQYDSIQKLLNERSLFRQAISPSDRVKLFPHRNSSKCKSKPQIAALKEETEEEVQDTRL

The subject of this test is Cystic fibrosis transmembrane conductance regulator (Homo sapiens), P13569 [F508del]. Briefly: Agonist activity at human CFTR deltaF508 mutant expressed in rat FRT cells assessed as forskolin-stimulated […] by patch-clamp method. Type of test: functional, cell-based. (In general: Cyclic AMP is a second messenger, typically raised through Gs and lowered through Gi signalling.)
Consider `CN(C(=O)Cc1c[nH]c2ccccc12)[C@H](C(=O)Nc1ccc(CO)cc1)c1ccccc1`, for which the result was Active.

As to `Cc1nc(NC(=O)c2ccccc2)sc1-c1csc(Nc2cc(Cl)ccc2OCCOCCOCC(=O)OCc2ccc(NC(=O)[C@H](c3ccccc3)N(C)C(=O)Cc3c[nH]c4ccccc34)cc2)n1`, the result was inactive. Regarding `Cc1nc(NC(=O)c2ccccc2)sc1-c1csc(Nc2cc(Cl)ccc2OCCOCCOCC(=O)O)n1`, the result was Active.
